Test results published in PMC10191356, “Target-agnostic drug prediction integrated with medical record analysis uncovers differential associations of statins with increased survival in COVID-19 patients” (PLOS Computational Biology, 2023).

Test system: SARS-CoV-2 GFP
Assay: microbe, parasite or virus in culture
Assay type: cell-based
Conditions: not given

Q: Which “inhibition of SARS-CoV-2 infection relative to pro-drug form of simvastatin” value does the source give for CCC(C)(C)C(=O)O[C@H]1C[C@@H](C)C=C2C=C[C@H](C)[C@H](CC[C@@H](O)C[C@@H](O)CC(=O)O)[C@H]21 [simvastatin hydroxy acid] here?
A: The value was “much weaker inhibition”.

Same assay, conditions: Severe acute respiratory syndrome coronavirus 2, 48 h; relative IC50; […]; mean of two independent experiments

Q: For CC[C@H](C)C(=O)O[C@H]1C[C@@H](C)C=C2C=C[C@H](C)[C@H](CC[C@@H]3C[C@@H](O)CC(=O)O3)[C@H]21 [lovastatin], which IC50 is on record?
A: The IC50 was 7.8 µM.

Q: Which IC50 does the source give for CCC(C)(C)C(=O)O[C@H]1C[C@@H](C)C=C2C=C[C@H](C)[C@H](CC[C@@H]3C[C@@H](O)CC(=O)O3)[C@H]21 [simvastatin] here?
A: The IC50 was 0.8 µM.

Same assay, conditions: […]; mean of two independent experiments

Q: For CC(C)n1c(/C=C/C(O)CC(O)CC(=O)O)c(-c2ccc(F)cc2)c2ccccc21 (stereo not shown) [fluvastatin], which “Max Inhibition (%)” value is on record?
A: Its value is 19%.

Q: For CC[C@H](C)C(=O)O[C@H]1C[C@@H](C)C=C2C=C[C@H](C)[C@H](CC[C@@H]3C[C@@H](O)CC(=O)O3)[C@H]21 [lovastatin], which “Max Inhibition (%)” value is on record?
A: Its value is 55.8%.

Q: Which “Max Inhibition (%)” value does the source give for CCC(C)(C)C(=O)O[C@H]1C[C@@H](C)C=C2C=C[C@H](C)[C@H](CC[C@@H]3C[C@@H](O)CC(=O)O3)[C@H]21 [simvastatin] here?
A: Its value is 93.7%.

Test system: SARS-CoV-2
Assay: Preliminary in vivo study in SARS-CoV-2-infected hamsters
Conditions: SARS-CoV-2-infected hamsters; very preliminary

Q: With CCC(C)(C)C(=O)O[C@H]1C[C@@H](C)C=C2C=C[C@H](C)[C@H](CC[C@@H]3C[C@@H](O)CC(=O)O3)[C@H]21 [simvastatin] as the compound, how does the “effect on infection and host response” value read?
A: The value was “no effect”.

Same assay, conditions: hamsters; compared with in vitro IC50

Q: With CCC(C)(C)C(=O)O[C@H]1C[C@@H](C)C=C2C=C[C@H](C)[C@H](CC[C@@H]3C[C@@H](O)CC(=O)O3)[C@H]21 [simvastatin] as the compound, how does the plasma levels read?
A: The plasma levels was “greater than the IC50”.

Test system: IP-10
Assay: IP-10 production in OC43-infected HUVECs
Assay type: cell-based, human
Conditions: 1 or 5 μM
Method: (§1) To measure the impact of selected drugs on HCoV-OC43 infection, 96-well plates seeded with human umbilical vein endothelial cells (HUVECs) were infected with HCoV-OC43 and treated with drugs (Methods in S1 Text). Viral load, Hoechst fluorescence, and IP-10 measurements were measured and normalized to vehicle control samples for each assay. Each group was compared to vehicle controls using the Brown-Forsythe and Welch ANOVA tests and corrected for multiple comparisons using a Dunnett T3 test.
(§2) To measure the impact of selected drugs on HCoV-OC43 infection, 96-well plates seeded with Human Umbilical Vein Endothelial Cells (HUVEC) were infected with HCoV-OC43 and treated with drugs. Uninfected and vehicle treated cells (0.1% DMSO) are included as controls. HUVEC plates were pre-dosed with drugs overnight at 34°C at indicated concentrations (100 µl/well). The following day, HCoV-OC43 was added to the wells (100 µl/well) at an MOI of 0.2 and incubated for 3 h at 34°C. […] After five PBS washes, Hoechst fluorescence was read at 355 nm excitation and 450 nm emission using a Synergy H1 Spectrophotometer. Subsequently, viral load was analyzed using the ImmPACT DAB Peroxidase (HRP) Substrate kit (Vector Labs) according to the manufacturer’s instructions, and DAB absorbance was read at 465 nm.

Q: For CCC(C)(C)C(=O)O[C@H]1C[C@@H](C)C=C2C=C[C@H](C)[C@H](CC[C@@H]3C[C@@H](O)CC(=O)O3)[C@H]21 [simvastatin], which “cytokine (IP-10) production” value is on record?
A: The value was “potently reduced”.

Test system: HCoV-OC43
Assay: HCoV-OC43 infection of HUVECs, viral load
Assay type: cell-based, human coronavirus OC43
Conditions: HUVEC cells, 1 or 5 μM
Method: as §1, §2

Q: With CCC(C)(C)C(=O)O[C@H]1C[C@@H](C)C=C2C=C[C@H](C)[C@H](CC[C@@H]3C[C@@H](O)CC(=O)O3)[C@H]21 [simvastatin] as the compound, how does the “OC43 infection (viral load)” value read?
A: Its value is “inhibits”.

Test system: SARS-CoV-2
Assay: Preliminary in vivo study in SARS-CoV-2-infected mice
Conditions: SARS-CoV-2-infected mice; very preliminary

Q: For CCC(C)(C)C(=O)O[C@H]1C[C@@H](C)C=C2C=C[C@H](C)[C@H](CC[C@@H]3C[C@@H](O)CC(=O)O3)[C@H]21 [simvastatin], which “effect on infection and host response” value is on record?
A: The value was “no effect”.

Same assay, conditions: mice; compared with in vitro IC50

Q: Which plasma levels does the source give for CCC(C)(C)C(=O)O[C@H]1C[C@@H](C)C=C2C=C[C@H](C)[C@H](CC[C@@H]3C[C@@H](O)CC(=O)O3)[C@H]21 [simvastatin] here?
A: The plasma levels was “greater than the IC50”.

Test system: not given
Assay: not given
Conditions: cited from earlier work

Q: Which results are given for CC(C)n1c(/C=C/C(O)CC(O)CC(=O)O)c(-c2ccc(F)cc2)c2ccccc21 (stereo not shown) [fluvastatin]?
A: Active metabolites: No; Bioavailability (%): 19 to 29%; Elimination half-life: 0.5 to 2.3 h; Metabolism: CYP2C9

Q: Which results are given for CC[C@H](C)C(=O)O[C@H]1C[C@@H](C)C=C2C=C[C@H](C)[C@H](CC[C@@H]3C[C@@H](O)CC(=O)O3)[C@H]21 [lovastatin]?
A: Active metabolites: Yes; Clearance: Hepatic; Elimination half-life: 2.9 h; Metabolism: CYP3A4

Q: For CCC(C)(C)C(=O)O[C@H]1C[C@@H](C)C=C2C=C[C@H](C)[C@H](CC[C@@H]3C[C@@H](O)CC(=O)O3)[C@H]21 [simvastatin], which Clearance is on record?
A: Its Clearance is “Hepatic”.

Q: What about the “Elimination half-life” value of the same compound?
A: Its value is 2 to 3 h.

Test system: COVID-19 patients
Assay: Retrospective electronic health record analysis of mortality (Cerner Real World Data COVID-19), propensity score matched
Assay type: in vivo, human
Conditions: cohort before propensity score matching; moderate-intensity statin dose
Method: Data from the Cerner Real World Data COVID-19 deidentified EHR database containing records of 490,373 patients with a diagnosis of COVID-19 or COVID-19 exposure across 87 health care centers were analyzed. The following statins were included: atorvastatin, fluvastatin, lovastatin, pitavastatin, pravastatin, rosuvastatin, and simvastatin. Primary outcome was death after the onset of COVID-19. Inclusion criteria, considered comorbidities, and statistical analysis are detailed in the Methods in S1 Text.
Encounters include laboratory and pharmacy information (e.g., medication orders, dispensing), which are date and time stamped. Only patients with COVID-19 diagnosis confirmed by a laboratory test for SARS-CoV-2 (nucleic acid amplification tests and immunoassays) and/or by International Statistical Classification of Diseases and Related Health Problems, Tenth Revision (ICD-10) code U07.1 (for COVID-19 confirmed by laboratory testing),^1 with known demographic characteristics (age, sex, and race and ethnicity), and who were 18 years or older from January to September 2020 were included in our study (n = 90,834). Patients with COVID-19, with a statin medication dose consistent with moderate-intensity therapy,^2 and with a medication order status of active or completed and without a designation of as needed (ie, medication taken only when needed) at least once within a period of 10 days before and 7 days after their first recorded COVID-19 diagnosis were compared with patients with COVID-19 and no statin orders.
Considered comorbidities, identified by using International Classification of Diseases, Ninth Revision, Clinical Modification (ICD-9-CM), and International Statistical Classification of Diseases, Tenth Revision, Clinical Modification (ICD-10-CM), diagnosis codes, included hypertension (I10-I16 and 401.X-405.X), diabetes (O24, E11, E10, E13, and 250.X), chronic obstructive pulmonary disease (J44, 491.2, 493.2, and 496.X), obesity (E66.0, E66.1, E66.2, E66.8, E66.9, 278.00, 278.01, 278.03, Z68.3, Z68.4, V85.3, and V85.4), heart conditions (I20.X, I21.X, I22.X, I23.X, I24.X, I25.X, I42.X, I50.X, 410.X, 411.X, 412.X, 413.X, 414.X, 428.X, and 425.X), cerebrovascular disease (I6X.X, G45.X, G46.X, and 43X.X), cancer (C00-C96, 14X.X, 15X.X, 16X.X, 17X.X, 18X.X, 19X.X, and 20X.X), and chronic kidney disease (N18.X and 585.X). Prescription indications, identified by using ICD-9-CM and ICD-10-CM codes, included high cholesterol/hyperlipidemia (E78.0, E78.1, E78.2, E78.3, E78.4, E78.5, 272, 277). Body mass index (calculated as weight in kilograms divided by height in meters squared) values were identified by Logical Observation Identifiers Names and Codes 39156-5 and 89270-3. Body mass index values of at least 30 were used to confirm the diagnosis of obesity by ICD-9-CM or ICD-10-CM code. The mean dose prescribed for statins-treated patients was calculated for each statin. […] For patients receiving pravastatin, the mean (SD) dose was 48.25 (16.21) mg/d.
The R Matchit package, version 3.0.2 (R Program for Statistical Computing) was used to perform propensity score matching with a nearest-neighbor method to match patients treated with a statin with control patients (1:1 ratio), atorvastatin-treated patients with control patients (1:1 ratio), lovastatin-treated patients with control patients (1:10 ratio), pravastatin-treated patients with control patients (1:10 ratio), rosuvastatin-treated patients with control patients (1:10 ratio), and simvastatin-treated patients with control patients (1:5 ratio), with varying ratios for the different statins to have sufficient power for the comparisons and increase precision. […]

Q: For CC[C@H](C)C(=O)O[C@H]1C[C@@H](C)C=C2C=C[C@H](C)[C@H](CC[C@@H]3C[C@@H](O)CC(=O)O3)[C@H]21 [lovastatin], which “Mortality, N (%)” value is on record?
A: The value was 15 (21.4) %.

Q: Which “Mortality, N (%)” value does the source give for CCC(C)(C)C(=O)O[C@H]1C[C@@H](C)C=C2C=C[C@H](C)[C@H](CC[C@@H]3C[C@@H](O)CC(=O)O3)[C@H]21 [simvastatin] here?
A: Its value is 153 (19.5) %.

Same assay, conditions: statin at moderate dose; COVID-19 patients

Q: Which “Mortality rate, treated patients” value does the source give for CC[C@H](C)C(=O)O[C@H]1C[C@@H](C)C=C2C=C[C@H](C)[C@H](CC[C@@H]3C[C@@H](O)CC(=O)O3)[C@H]21 [lovastatin] here?
A: Its value is 21.4%.

Q: And the “No. died/No. treated, treated patients” value?
A: Its value is 15/70.

Q: With CCC(C)(C)C(=O)O[C@H]1C[C@@H](C)C=C2C=C[C@H](C)[C@H](CC[C@@H]3C[C@@H](O)CC(=O)O3)[C@H]21 [simvastatin] as the compound, how does the “Mortality rate, treated patients” value read?
A: The value was 19.5%.

Q: What about the “No. died/No. treated, treated patients” value of the same compound?
A: Its value is 153/784.

Same assay, conditions: treated vs matched untreated controls

Q: With CCC(C)(C)C(=O)O[C@H]1C[C@@H](C)C=C2C=C[C@H](C)[C@H](CC[C@@H]3C[C@@H](O)CC(=O)O3)[C@H]21 [simvastatin] as the compound, how does the “reduction in the RR” value read?
A: Its value is 17%.

Test system: not given
Assay: not given
Conditions: cited from earlier work
Remark: another data set of the same source

Q: For CC(C)n1c(/C=C/C(O)CC(O)CC(=O)O)c(-c2ccc(F)cc2)c2ccccc21 (stereo not shown) [fluvastatin], which “Protein binding (%)” value is on record?
A: Its value is over 99%.

Q: For CC[C@H](C)C(=O)O[C@H]1C[C@@H](C)C=C2C=C[C@H](C)[C@H](CC[C@@H]3C[C@@H](O)CC(=O)O3)[C@H]21 [lovastatin], which “Protein binding (%)” value is on record?
A: Its value is over 95%.

Q: For CCC(C)(C)C(=O)O[C@H]1C[C@@H](C)C=C2C=C[C@H](C)[C@H](CC[C@@H]3C[C@@H](O)CC(=O)O3)[C@H]21 [simvastatin], which “Protein binding (%)” value is on record?
A: The value was 94 to 98%.

Test system: Vero E6 (Vero6) cells
Assay: not given
Conditions: uninfected Vero6 cells; mean of two independent experiments

Q: For CC(C)n1c(/C=C/C(O)CC(O)CC(=O)O)c(-c2ccc(F)cc2)c2ccccc21 (stereo not shown) [fluvastatin], which “Max Toxicity (%)” value is on record?
A: Its value is 80.4%.

Q: Which “Max Toxicity (%)” value does the source give for CC[C@H](C)C(=O)O[C@H]1C[C@@H](C)C=C2C=C[C@H](C)[C@H](CC[C@@H]3C[C@@H](O)CC(=O)O3)[C@H]21 [lovastatin] here?
A: The value was 74.2%.

Q: Which “Max Toxicity (%)” value does the source give for CCC(C)(C)C(=O)O[C@H]1C[C@@H](C)C=C2C=C[C@H](C)[C@H](CC[C@@H]3C[C@@H](O)CC(=O)O3)[C@H]21 [simvastatin] here?
A: Its value is 78.5%.

Test system: not listed separately
Assay: in vitro
Conditions: African green monkey

Q: For CC(C)n1c(/C=C/C(O)CC(O)CC(=O)O)c(-c2ccc(F)cc2)c2ccccc21 (stereo not shown) [fluvastatin], which CC50 is on record?
A: The CC50 was 10.6 µM.

Q: Which CC50 does the source give for CC[C@H](C)C(=O)O[C@H]1C[C@@H](C)C=C2C=C[C@H](C)[C@H](CC[C@@H]3C[C@@H](O)CC(=O)O3)[C@H]21 [lovastatin] here?
A: The CC50 was 16.9 µM.

Q: For CCC(C)(C)C(=O)O[C@H]1C[C@@H](C)C=C2C=C[C@H](C)[C@H](CC[C@@H]3C[C@@H](O)CC(=O)O3)[C@H]21 [simvastatin], which CC50 is on record?
A: Its CC50 is 6.5 µM.

Test system: not given
Assay: not given
Conditions: cited from earlier work
Remark: another data set of the same source

Q: Which Solubility does the source give for CC(C)n1c(/C=C/C(O)CC(O)CC(=O)O)c(-c2ccc(F)cc2)c2ccccc21 (stereo not shown) [fluvastatin] here?
A: Its Solubility is “Lipophilic”.

Q: Which Solubility does the source give for CC[C@H](C)C(=O)O[C@H]1C[C@@H](C)C=C2C=C[C@H](C)[C@H](CC[C@@H]3C[C@@H](O)CC(=O)O3)[C@H]21 [lovastatin] here?
A: The Solubility was “Lipophilic”.
